Earlier results in US20070281997A1, “TREATMENT OF HOT FLASHES USING MUSCARINIC RECEPTOR ANTAGONISTS” (priority 2006, published 2007).

System: hot flashes
Details: men receiving androgen deprivation therapy; previous reports, pilot studies

SMILES	efficacy to reduce hot flashes
CC(=O)[C@@]1(O)CC[C@H]2[C@@H]3C=C(C)C4=CC(=O)CC[C@]4(C)[C@H]3CC[C@@]21C [megasterol]	efficacious
Fc1ccc([C@@H]2CCNC[C@H]2COc2ccc3c(c2)OCO3)cc1 [paroxetine]	shown efficacy
COc1ccc(C(CN(C)C)C2(O)CCCCC2)cc1 (stereo not drawn) [venlafaxine]	shown efficacy
